In publication PMC10816934, “Targeting the Melanocortin 1 Receptor in Melanoma: Biological Activity of α-MSH–Peptide Conjugates” (International Journal of Molecular Sciences, 2024):
Square brackets hold non-standard residues; d marks the D form. Peptide text beside a SMILES is read from it. * marks the point of attachment. Daunorubicin(13-NOCH2CO) = COc1cccc2c1C(=O)c1c(O)c3c(c(O)c1C2=O)C[C@@](O)(C(C)=NOCC(=O)*)C[C@@H]3O[C@H]1C[C@H](N)[C@H](O)[C@H](C)O1; Nle = CCCC[C@H](N)C(=O)O

How the values were obtained:
healthy male BALB/c mice = assay: In vivo acute toxicity study on healthy mice; set-up: species or system mouse
Method: To determine toxicity of conjugates on healthy animals, in vivo acute toxicity study of Dau, Conj2 and Conj4 was performed. In the first experiment, adult BALB/c male mice (29–31 g) were exposed by one injection of the conjugate at the start of experiment, by intraperitoneal (i.p.) administration. A dose of 25 mg Dau content/kg was used, in a volume of 0.1 mL per mice (3 mice per condition). In the second in vivo experiment, NOD-SCID mice were exposed by four injections of the conjugates at the start of experiment, by intraperitoneal (i.p.) administration. Doses of 5, 10 and 15 mg Dau content/kg were used for the toxicity assay, at a volume of 0.1 mL per mice (3 mice per condition). The animals were kept under the conditions as described above.

[1] = system: subcutaneous B16 murine melanoma in C57BL/6 male mice; assay: In vivo antitumor effect, subcutaneous B16 melanoma allograft; details: conjugates 10 mg Dau content/kg
Method: In the first experiment, B16 murine melanoma cells were subcutaneously (s.c.) injected into side of the latero-abdominal region of 35 C57BL/6 male mice (20–28 g), which murine strain is syngeneic for the B16 melanoma tumor cell line [59, 60], 6.5 ×·10^5 cells in a volume of 200 µL M199 medium was inoculated per animal. Mice were randomized in a stratified procedure considering two main factors. The primary factor was to obtain groups with the most equal tumor sizes, the secondary factor was to have groups in which the weight of mice are the most equal. The treatment started 9 days after cell inoculation when average tumor volume was 30 mm^3. Compounds were dissolved in saline solution (Teva, Debrecen, Hungary), and administered via i.p. injection in a volume of 0.1 mL per 10 g of bodyweight. […] Animal weight and tumor volumes were measured initially when the treatment started and at periodic intervals following treatment. A digital caliper was used to measure the longest (a) and the shortest diameter (b) of a given tumor. The tumor volume was calculated using the formula V = ab^2 × π/6, whereby a and b represent the measured parameters (length and width). Termination of the experiment was 20 days after cell inoculation, i.e., 12 days after treatment started, since the average volume of the tumors in the control group reached over 1800 mm^3. The mice from all groups were sacrificed by cervical dislocation after which their tumors were harvested and weighed for antitumor effect assessment. Antitumor effect of treatments was evaluated measuring the tumor volume and calculating the percentage of how much the tumor volume grew in comparison to the starting tumor volume which was set arbitrarily for all tumors as 100% at the start of treatment.

WM983A cells = assay: In vitro cytostatic effect, PrestoBlue assay; type: cell-based, human
Text: (§1) The following cell cultures were used for the biological evaluation of the synthetic melanoma-specific peptide–drug (Dau–α-MSH) conjugates: A2058 (human skin melanoma, CVCL_1059), M24 (human metastatic skin melanoma, CVCL_D032), OCM-1 (human ocular choroidal melanoma-1, CVCL_6934), OCM-3 (human ocular choroidal melanoma-3, CVCL_6937), WM983A (human metastatic skin melanoma, CVCL_6808), WM983B (human metastatic skin melanoma CVCL_6809), SK-MEL-202 (human skin melanoma, ATCC HTB-68) and B16 (mouse melanoma, ATCC: CRL-6475). Cells were maintained in RPMI-1640 (Lonza, Basel, Switzerland), supplied with 10% FBS (fetal bovine serum; BioSera, Nuaille, France), L-glutamine, and 1% penicillin–streptomycin (from 10 000 units penicillin and 10 mg streptomycin/mL, Gibco, Dublin, Ireland) at 37 °C in a 5% CO2 atmosphere. No mycoplasma contamination was detected in the cell cultures.
(§2) The in vitro cytostatic effect of the Dau–α-MSH conjugate with optimized sequence (Conj4) was investigated and compared with Conj2 by PrestoBlue assay using human melanoma cell cultures with different origins. For determination of the cytostatic effect of the conjugates, the cells were treated with the compounds at 0.003–200 μM concentration range dissolved in the corresponding serum-free medium for 72 h. After the treatment, the PrestoBlue assay (purchased from Invitrogen (Waltham, MA, USA) was carried out to determine the IC50 values of the compounds. Based on the IC50 values, we also determined the targeting index (TI) of the conjugates using the following equation [58]: TI=IC50neg/IC50posconjugate/IC50neg/IC50posfree drug

SK-MEL-202 cells = assay: In vitro cytostatic effect, PrestoBlue assay; type: cell-based, human
Text: as §1, §2

WM983B cells = assay: In vitro cytostatic effect, PrestoBlue assay; type: cell-based, human
Text: as §1, §2

A2058 cells = assay: In vitro cytostatic effect, PrestoBlue assay; type: cell-based, human
Text: as §1, §2

OCM-3 cells = assay: In vitro cytostatic effect, PrestoBlue assay; type: cell-based, human
Text: as §1, §2

OCM-1 cells = assay: In vitro cytostatic effect, PrestoBlue assay; type: cell-based, human
Text: as §1, §2

[2] = system: OCM-1 human uveal melanoma tumor in male NOD-SCID mice; assay: In vivo tumor growth inhibition, OCM-1 xenograft; set-up: species or system mouse; details: for Normalized liver weight, value line 1 / Normalized liver weight, value line 2 / Normalized liver weight, value line 3 / Normalized liver weight, value line 4 / Normalized liver weight, value line 5 / Normalized liver weight, value line 6 / Normalized liver weight, value line 7 / Normalized liver weight, line printed as "ave": Table S2; for Normalized liver weight, value line 1 / Normalized liver weight, value line 2 / Normalized liver weight, value line 3 / Normalized liver weight, value line 4 / Normalized liver weight, value line 5 / Normalized liver weight, value line 6 / Normalized liver weight, value line 7: single animal; for Normalized liver weight, line printed as "ave": value line 8
Method: In the next experiment, the murine xenograft melanoma model establishment studies were performed using 8–12-week-old male NOD-SCID mice. For selection of the most suitable tumor model, three cell lines were then inoculated subcutaneously, OCM-1, SK-MEL-202, and WM983A. Cells were injected in a 0.1 mL RPMI-1640 basic medium in a concentration of 1.5·× 10^6 cells/mL, and the tumor growth and weight of mice were monitored 2–3 times per week. Subsequently, the antitumor effects of the Dau–α-MSH conjugates were determined in a mouse xenograft melanoma model selected as described above. Once the tumor volume reached 60 mm^3, mice were randomized and assigned to different groups for each treatment: 0.9% saline as a control, free daunomycin, Conj2 and Conj4. Treatments were injected intraperitoneally every fifth day, three times in total (daunomycin dosage of 5 mg/kg in case of Conj2, 10 mg/kg for Conj4, respectively, which was determined based on the toxicity tests, and 1 mg/kg were used for free drug–MTD). The weight and tumor size of mice were monitored during the whole experiment. On Day 33, mice were euthanized, and the primary tumor, heart, lung, liver, and spleen were harvested and stored in 4% formalin (Molar Chemicals, Halásztelek, Hungary). Liver weight was measured for the calculation of the toxicity of conjugates and daunomycin.

[3] = system: B16 murine melanoma cell line; assay: In vitro antiproliferative activity, MTT assay; type: cell-based, mouse; details: ratio of IC50 values of free Dau and conjugate
Text: as §1
(§3) The in vitro cytostatic effect of Dau–α-MSH conjugates was determined by two different assays. The full-length Dau–α-MSH conjugates were investigated by MTT assay using human and murine melanoma cell cultures. For determination of the cytostatic effect of these conjugates, the cells were treated with the compounds at 0.8–100 μM concentration range dissolved in the corresponding serum-free media for 24 h. After incubation, the treating solutions were removed, the cells were washed two times with serum-free medium and cultured for 48 h in the appropriate serum-containing cell culture medium. On the fourth day, the MTT assay was carried out to determine the IC50 values of the compounds. IC50 is the concentration that inhibits cell proliferation by 50%. Nonlinear regression analysis was performed with Prism 6 software (GraphPad, La Jolla, CA, USA) to generate sigmoidal dose–response curves, from which the 50% inhibitory concentration (IC50) values of the compounds were calculated and presented as micromolar (µM) units. The experiments were done in triplicate, and each experiment was repeated twice.

[4] = system: WM983B human melanoma cell line; assay: In vitro antiproliferative activity, MTT assay; type: cell-based; details: ratio of IC50 values of free Dau and conjugate
Text: as §1, §3

[5] = system: M24 human melanoma cell line; assay: In vitro antiproliferative activity, MTT assay; type: cell-based; details: ratio of IC50 values of free Dau and conjugate
Text: as §1, §3

[6] = system: A2058 human melanoma cell line; assay: In vitro antiproliferative activity, MTT assay; type: cell-based; details: ratio of IC50 values of free Dau and conjugate
Text: as §1, §3

[7] = change compared to control group, minus = inhibition, free Dau 1 mg/kg

CCCC[C@H](NC(=O)[C@H](CO)NC(=O)[C@H](Cc1ccc(O)cc1)NC(=O)[C@H](CO)NC(C)=O)C(=O)N[C@@H](CCC(=O)O)C(=O)N[C@@H](Cc1c[nH]cn1)C(=O)N[C@@H](Cc1ccccc1)C(=O)N[C@@H](CCCNC(=N)N)C(=O)N[C@@H](Cc1c[nH]c2ccccc12)C(=O)NCC(=O)N[C@@H](CCCCNC(=O)CON=C(C)[C@]1(O)Cc2c(O)c3c(c(O)c2[C@@H](O[C@H]2C[C@H](N)[C@H](O)[C@H](C)O2)C1)C(=O)c1c(OC)cccc1C3=O)C(=O)N1CCC[C@H]1C(=O)N[C@H](C(N)=O)C(C)C [Conj2, Ac-SYSNleEHFRWGK(Dau=Aoa)PV-NH2]
Changes in bodyweight, liver mass, general appearance and behavior (healthy male BALB/c mice; after 14 days, one i.p. injection 25 mg Dau content/kg, BALB/c male mice): no significant changes
Acute toxicity (healthy male BALB/c mice; one i.p. injection, up to 25 mg Dau content/kg, healthy BALB/c male mice, 3 mice, 14 days): does not show acute toxicity
Tumor growth inhibition based on tumor weight, in comparison to the control group ([1]; after termination (day 20), free Dau 1 mg/kg i.p.): 38.6%
Tumor weigh in % (Table S1) ([1]; change compared to control group, minus = decrease, free Dau 1 mg/kg): -38.6%
Tumor volume in % (Table S1) [1, 7]: -75.4%
Tumor volume in mm3 (Table S1) [1, 7]: -37.8%
Targeting Index (TI) (WM983A cells; WM983A versus A2058, TI = (IC50neg/IC50pos conjugate)/(IC50neg/IC50pos free drug)): 1.90
Targeting Index (TI) (SK-MEL-202 cells; SK-MEL-202 versus A2058, TI = (IC50neg/IC50pos conjugate)/(IC50neg/IC50pos free drug)): 2.74
Targeting Index (TI) (WM983B cells; WM983B versus A2058, TI = (IC50neg/IC50pos conjugate)/(IC50neg/IC50pos free drug)): 2.61
Targeting Index (TI) (A2058 cells; A2058 (reference cell line), TI = (IC50neg/IC50pos conjugate)/(IC50neg/IC50pos free drug)): 1.00
Targeting Index (TI) (OCM-3 cells; OCM-3 versus A2058, TI = (IC50neg/IC50pos conjugate)/(IC50neg/IC50pos free drug)): 1.85
Targeting Index (TI) (OCM-1 cells; OCM-1 versus A2058, TI = (IC50neg/IC50pos conjugate)/(IC50neg/IC50pos free drug)): 2.30
Growth of the tumor reduced to % of the control size ([2]; Day 33, 5 mg/kg Dau content i.p., three treatments (days 15, 19, 23), p: 0.0056): 55%
Normalized liver weight, value line 1 [2]: 3.77%
Normalized liver weight, value line 2 [2]: 5.10%
Normalized liver weight, value line 3 [2]: 4.35%
Normalized liver weight, value line 4 [2]: 4.14%
Normalized liver weight, value line 5 [2]: 4.73%
Normalized liver weight, value line 6 [2]: 4.15%
Normalized liver weight, value line 7 [2]: 4.90%
Normalized liver weight, line printed as "ave" [2]: 4.55%
Relative Potency [3]: 0.0093
Relative Potency [4]: 0.0063
Relative Potency [5]: 0.0103
Relative Potency [6]: 0.0125

CCCC[C@H](NC(C)=O)C(=O)N[C@@H](CCC(=O)O)C(=O)N[C@@H](Cc1c[nH]cn1)C(=O)N[C@H](Cc1ccccc1)C(=O)N[C@@H](CCCNC(=N)N)C(=O)N[C@@H](Cc1c[nH]c2ccccc12)C(=O)NCC(=O)N[C@@H](CCCCNC(=O)CON=C(C)[C@]1(O)Cc2c(O)c3c(c(O)c2[C@@H](O[C@H]2C[C@H](N)[C@H](O)[C@H](C)O2)C1)C(=O)c1c(OC)cccc1C3=O)C(N)=O [Conj4, Ac-NleEHfRWGK(Dau=Aoa)-NH2] (Ac-[Nle]EH[dF]RWGK(Daunorubicin(13-NOCH2CO))-NH2)
IC50 (WM983A cells; WM983A, PrestoBlue, 0.003–200 μM in serum-free medium 72 h, mean ± SEM of three independent experiments): 13.5 ± 0.06 µM
IC50 (SK-MEL-202 cells; SK-MEL-202, PrestoBlue, 0.003–200 μM in serum-free medium 72 h, mean ± SEM of three independent experiments): 2.06 ± 0.1 µM
IC50 (WM983B cells; WM983B, PrestoBlue, 0.003–200 μM in serum-free medium 72 h, mean ± SEM of three independent experiments): 10.18 ± 0.06 µM
IC50 (A2058 cells; A2058, PrestoBlue, 0.003–200 μM in serum-free medium 72 h, mean ± SEM of three independent experiments): 7.15 ± 0.07 µM
IC50 (OCM-3 cells; OCM-3, PrestoBlue, 0.003–200 μM in serum-free medium 72 h, mean ± SEM of three independent experiments): 25.47 ± 0.08 µM
IC50 (OCM-1 cells; OCM-1, PrestoBlue, 0.003–200 μM in serum-free medium 72 h, mean ± SEM of three independent experiments): 29.68 ± 0.06 µM
Normalized liver weight, value line 1 [2]: 5.23%
Normalized liver weight, value line 2 [2]: 4.34%
Normalized liver weight, value line 3 [2]: 4.47%
Normalized liver weight, value line 4 [2]: 4.50%
Normalized liver weight, value line 5 [2]: 5.35%
Normalized liver weight, value line 6 [2]: 4.70%
Normalized liver weight, value line 7 [2]: 5.11%
Normalized liver weight, line printed as "ave" [2]: 4.62%
